Here are results for 1 compound from patent publication US20180298024A1, “CORTISTATIN ANALOGS AND USES THEREOF” (President and Fellows of Harvard College, priority 2015, published 2018).

The term IC50 denotes the concentration that inhibits the measured activity by half. A higher IC50 goes with weaker potency. One may read the Ki as a measure of affinity in units of concentration, obtained from inhibition or displacement. Low readings indicate higher affinity, high ones lower affinity. What is called inhibition is the percentage by which the read-out fell short of the control. The term GI50 denotes the concentration giving 50% growth inhibition.

Where “and” joins values, the source holds several entries; their conditions need not be identical. Equal entries are not always repeated.

Test [1] concerns the target T1, Adenosine Transporter (Cavia porcellus, UniProt H0V4R7).
T1 sequence (H0V4R7 1-461): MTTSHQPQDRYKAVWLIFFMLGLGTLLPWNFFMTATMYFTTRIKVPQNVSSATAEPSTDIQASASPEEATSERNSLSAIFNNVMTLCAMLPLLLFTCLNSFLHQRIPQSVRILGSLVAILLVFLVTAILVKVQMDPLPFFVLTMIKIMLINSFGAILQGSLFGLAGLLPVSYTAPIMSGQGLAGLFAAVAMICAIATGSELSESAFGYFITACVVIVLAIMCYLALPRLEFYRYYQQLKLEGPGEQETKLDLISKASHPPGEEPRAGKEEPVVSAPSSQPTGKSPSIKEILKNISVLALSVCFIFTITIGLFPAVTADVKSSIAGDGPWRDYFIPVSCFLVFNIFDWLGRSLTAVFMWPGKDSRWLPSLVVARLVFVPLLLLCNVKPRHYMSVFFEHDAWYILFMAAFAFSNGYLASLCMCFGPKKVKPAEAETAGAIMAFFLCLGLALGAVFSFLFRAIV
In words: Panlab assay, Adenosine Transporter. In kind it is binding. On the procedure:
(§1) Compounds A, B, C, and D were tested in Panlab assays to evaluate potential off-target activity using standard assay kits. Methods employed in these studies have been adapted from the scientific literature to maximize reliability and reproducibility. Reference standards were run as an integral part of each assay to ensure the validity of the results obtained.
(§2) IC50 values were determined by a non-linear, least squares regression analysis using MathIQ™ (ID Business Solutions Ltd., UK). Where inhibition constants (Ki) are presented, the Ki values were calculated using the equation of Cheng and Prusoff (Cheng, Y., Prusoff, W. H., Biochem. Pharmacol. 22:3099-3108, 1973) using the observed IC50 of the tested compound, the concentration of radioligand employed in the assay, and the historical values for the KD of the ligand (obtained experimentally at Eurofins Panlabs, Inc.). Where presented, the Hill coefficient (nH), defining the slope of the competitive binding curve, was calculated using MathIQ™.

Test [2] addresses T2, Dopamine Transporter (Homo sapiens, UniProt Q01959).
T2 construct: Eurofins Panlabs
In words: Panlab assay, Dopamine Transporter. In kind it is binding. The procedure:
(§3) Compounds A, B, C, and D were tested in Panlab assays to evaluate potential off-target activity using standard assay kits. Methods employed in these studies have been adapted from the scientific literature to maximize reliability and reproducibility.
(§4) IC50 values were determined by a non-linear, least squares regression analysis using MathIQ™ (ID Business Solutions Ltd., UK). […] Where presented, the Hill coefficient (nH), defining the slope of the competitive binding curve, was calculated using MathIQ™.

Test [3] has as its target T3, Tachykinin NK1 (Homo sapiens, UniProt P25103).
T3 construct: Eurofins Panlabs
In words: Panlab assay, Tachykinin NK1. In kind it is binding. The procedure: as §1, §2

Test [4] has as its target T4, Opiate μ(OP3, MOP) (Homo sapiens, UniProt P35372).
T4 construct: Eurofins Panlabs
In words: Panlab assay, Opiate μ(OP3, MOP). In kind it is binding. The procedure: as §3, §4

The target in test [5] is T5, CAMK2B (Homo sapiens, UniProt Q13554).
T5 construct: purchased ProQinase; host or cells: Sf9 insect cells or E. coli
In words: 33PanQinase radiometric kinase assay, CAMK2B. In kind it is biochemical. The procedure:
(§5) A radiometric protein kinase assay (33PanQinase Activity Assay) was used for measuring the kinase activity of the 320 protein kinases. All kinase assays were performed in 96-well FlashPlates™ from Perkin Elmer (Boston, Mass., USA) in a 50 μl reaction volume. The reaction cocktail was pipetted in 4 steps in the following order: • 1. 10 μl of non-radioactive ATP solution (in H2O) • 2. 25 μl of assay buffer/[γ-33P]-ATP mixture • 3. 5 μl of test sample in 10% DMSO • 4. 10 μl of enzyme/substrate mixture
(§6) All PKC assays (except the PKC-mu and the PKC-nu assay) additionally contained 1 mM CaCl2, 4 mM EDTA, 5 μg/ml phosphatidylserine and 1 μg/ml 1,2-dioleyl-glycerol.
The CAMKID, CAMK2A, CAMK2B, CAMK2D, CAMK4, CAMKK1, CAMKK2, DAPK2, EEF2K, MYLK, MYLK2 and MYLK3 assays additionally contained 1 μg/ml Calmodulin and 0.5 mM CaCl2). The PRKG1 and PRKG2 assays additionally contained 1 μM cGMP. The DNA-PK assay additionally contained 2.5 μg/ml DNA. The protein kinase reaction cocktails were incubated at 30° C. for 60 minutes. The reaction was stopped with 50 μl of 2% (v/v) H3PO4, plates were aspirated and washed two times with 200 μl 0.9% (w/v) NaCl. Incorporation of 33Pi (counting of “cpm”) was determined with a microplate scintillation counter (Microbeta, Wallac). All protein kinase assays were performed with a BeckmanCoulter Biomek 2000/SL robotic system.
All protein kinases provided by ProQinase were expressed in Sf9 insect cells or in E. coli as recombinant GST-fusion proteins or His-tagged proteins, either as full-length or enzymatically active fragments. All kinases were produced from human cDNAs and purified by either GSHaffinity chromatography or immobilized metal. Affinity tags were removed from a number of kinases during purification. […]
(§7) For each kinase, the median value of the cpm of three wells was defined as “low control” (n=3). This value reflects unspecific binding of radioactivity to the plate in the absence of a protein kinase but in the presence of the substrate. […] The residual activity (in %) for each compounds well was calculated by using the following formula: […]

For test [6], the target named is T6, LTK (Homo sapiens, UniProt P29376).
T6 construct: purchased ProQinase; host or cells: Sf9 insect cells or E. coli
In words: 33PanQinase radiometric kinase assay, LTK. In kind it is biochemical. On the procedure:
as §5, §6
The CAMKID, CAMK2A, CAMK2B, CAMK2D, CAMK4, CAMKK1, CAMKK2, DAPK2, EEF2K, MYLK, MYLK2 and MYLK3 assays additionally contained 1 μg/ml Calmodulin and 0.5 mM CaCl2). The PRKG1 and PRKG2 assays additionally contained 1 μM cGMP. The DNA-PK assay additionally contained 2.5 μg/ml DNA. […] Incorporation of 33Pi (counting of “cpm”) was determined with a microplate scintillation counter (Microbeta, Wallac). […]
as §7

The subject of test [7] is OCI-AML2. In words: Half-maximal growth inhibition (GI50), OCI-AML2. In kind it is cell-based. Conditions: Homo sapiens, 240 h, AML, M4, DNMT3A R635W, read-out: GI50 (nM), day 10. The procedure: Compounds A, B, C, D, and F were tested against various cell lines to probe their broad utility against cancer. Cortistatin A (CA) was also tested against the cell lines in a head to head fashion.

T2 sequence (Q01959 whole entry): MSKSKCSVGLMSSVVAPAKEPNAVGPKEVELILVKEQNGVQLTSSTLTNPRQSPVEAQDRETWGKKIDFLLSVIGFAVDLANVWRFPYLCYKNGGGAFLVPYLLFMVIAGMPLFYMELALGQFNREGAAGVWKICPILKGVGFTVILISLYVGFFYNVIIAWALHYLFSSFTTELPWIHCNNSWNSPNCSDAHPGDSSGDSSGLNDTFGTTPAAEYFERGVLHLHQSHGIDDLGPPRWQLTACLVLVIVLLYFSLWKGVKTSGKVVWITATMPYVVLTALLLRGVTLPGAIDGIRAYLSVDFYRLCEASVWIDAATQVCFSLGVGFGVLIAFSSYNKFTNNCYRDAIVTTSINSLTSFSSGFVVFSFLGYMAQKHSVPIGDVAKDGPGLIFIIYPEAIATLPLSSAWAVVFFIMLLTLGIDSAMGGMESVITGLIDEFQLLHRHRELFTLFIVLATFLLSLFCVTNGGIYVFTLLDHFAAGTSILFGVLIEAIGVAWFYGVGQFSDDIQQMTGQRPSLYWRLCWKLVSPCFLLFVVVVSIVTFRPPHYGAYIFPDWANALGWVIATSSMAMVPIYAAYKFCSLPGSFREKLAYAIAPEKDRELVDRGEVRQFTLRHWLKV
T4 sequence (P35372 whole entry): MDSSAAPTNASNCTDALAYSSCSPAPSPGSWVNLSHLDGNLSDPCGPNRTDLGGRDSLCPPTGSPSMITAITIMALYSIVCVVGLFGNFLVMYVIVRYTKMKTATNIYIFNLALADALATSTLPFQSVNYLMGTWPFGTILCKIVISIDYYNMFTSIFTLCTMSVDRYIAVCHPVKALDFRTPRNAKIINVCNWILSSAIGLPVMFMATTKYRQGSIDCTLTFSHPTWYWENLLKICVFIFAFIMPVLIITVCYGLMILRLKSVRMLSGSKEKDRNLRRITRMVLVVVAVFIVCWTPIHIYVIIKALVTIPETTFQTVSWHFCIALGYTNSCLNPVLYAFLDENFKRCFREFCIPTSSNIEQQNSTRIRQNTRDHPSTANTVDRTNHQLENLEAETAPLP
T3 sequence (P25103 whole entry): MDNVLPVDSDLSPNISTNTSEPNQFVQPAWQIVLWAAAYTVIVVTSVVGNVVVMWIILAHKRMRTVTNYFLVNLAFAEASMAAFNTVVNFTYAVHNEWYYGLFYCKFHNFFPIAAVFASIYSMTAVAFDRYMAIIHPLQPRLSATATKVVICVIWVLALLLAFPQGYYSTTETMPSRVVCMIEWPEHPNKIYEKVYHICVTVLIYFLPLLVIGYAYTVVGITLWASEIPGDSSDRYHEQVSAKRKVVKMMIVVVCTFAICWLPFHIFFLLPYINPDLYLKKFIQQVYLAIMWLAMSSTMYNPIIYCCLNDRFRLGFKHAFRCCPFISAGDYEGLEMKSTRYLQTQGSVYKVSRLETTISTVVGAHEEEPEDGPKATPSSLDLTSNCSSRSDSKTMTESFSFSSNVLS
T6 sequence (P29376 17-864): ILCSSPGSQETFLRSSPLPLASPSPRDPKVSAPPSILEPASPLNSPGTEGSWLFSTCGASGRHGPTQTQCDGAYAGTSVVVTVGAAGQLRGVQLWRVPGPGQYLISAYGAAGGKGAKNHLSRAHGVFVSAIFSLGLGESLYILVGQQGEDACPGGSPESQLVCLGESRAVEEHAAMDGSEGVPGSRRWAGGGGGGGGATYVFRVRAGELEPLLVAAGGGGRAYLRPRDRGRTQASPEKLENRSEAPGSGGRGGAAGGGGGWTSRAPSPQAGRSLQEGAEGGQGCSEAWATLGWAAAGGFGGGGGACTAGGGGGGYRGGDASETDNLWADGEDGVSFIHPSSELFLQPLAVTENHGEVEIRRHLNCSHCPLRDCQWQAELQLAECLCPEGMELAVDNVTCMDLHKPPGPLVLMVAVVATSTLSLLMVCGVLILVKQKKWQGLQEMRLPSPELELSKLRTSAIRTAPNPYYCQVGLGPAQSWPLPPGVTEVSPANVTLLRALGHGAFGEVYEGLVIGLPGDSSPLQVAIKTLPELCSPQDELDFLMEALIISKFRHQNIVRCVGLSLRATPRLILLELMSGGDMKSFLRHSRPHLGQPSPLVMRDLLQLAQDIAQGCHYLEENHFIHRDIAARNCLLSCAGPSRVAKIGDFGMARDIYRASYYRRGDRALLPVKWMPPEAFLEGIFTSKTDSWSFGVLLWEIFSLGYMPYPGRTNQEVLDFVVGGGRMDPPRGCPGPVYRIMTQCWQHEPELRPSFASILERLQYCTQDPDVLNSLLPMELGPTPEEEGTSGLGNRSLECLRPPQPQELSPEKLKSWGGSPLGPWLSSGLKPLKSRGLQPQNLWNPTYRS

For `C[C@]12CC=C3C=C4CC[C@@H](O)C[C@]45CC[C@]3(O5)[C@@H]1CC[C@@H]2c1ccc2ccncc2c1` [Compound A, (3S,3aR,9R,10aR,12aS,12bR)-3-(isoquinolin-7-yl)-3a-methyl-1,2,3,3a,4,7,8,9,10,11,12,12b-dodecahydro-10a,12a-epoxybenzo[4,5]cyclohepta[1,2-e]inden-9-ol], the IC50 in test [1] was determined as 3.61 µM; in test [2], 4.9 µM; in test [3], 5.94 µM; in test [4], 5.73 µM. Further, the “nH (Hill coefficient), Adenosine Transporter” value in test [1] is listed as 1.30. Besides, the Ki came to 1230 nM in test [1] (Cheng and Prusoff); 3.89 µM in test [2] (Cheng and Prusoff); 4.3 µM in test [3] (Cheng and Prusoff); 2330 nM in test [4] (Cheng and Prusoff). In addition, in test [2], the “nH (Hill coefficient), Dopamine Transporter” value is given as 0.97. Further, the “nH (Hill coefficient), Tachykinin NK1” value in test [3] is given as 1.01. Further, in test [4], the “nH (Hill coefficient), Opiate μ(OP3, MOP)” value is on record as 0.90. Moreover, the inhibition at 1 µM is above 50% in test [5] (1 μM, 2 replicates, read-out: average percent inhibition of CAMK2B) and above 50% in test [6] (1 μM, 2 replicates, read-out: average percent inhibition of LTK). Moreover, the “percent inhibition of CAMK2B, replicates” value in test [5] (1 μM, single replicates) is 36% and 79%. Also, the “inhibition of CAMK2B upon retesting” value in test [5] (up to 10 μM) was “not inhibited”. For the same compound, the “inhibition of LTK upon retesting” value in test [6] (up to 10 μM) is reported as “not inhibited”. For the same compound, in test [7], the GI50 was determined as 4 nM.
